Experimental findings from patent publication US5973112A, “Collagen mimics” (Wisconsin Alumni Research Foundation, priority 1997, dated 1999) are described below.

The nature of data set [1]: crystalline structure, Cγ-Cδ bond length. The format is physicochemical. The source says:
The origin of this effect on trans:cis ratio was explored by determining the crystalline structures of AcProOMe, AcHypOMe, and AcFlpOMe, Panasik et al., Int. J. Pept. Protein Res., 44:262-269. […] This order is consistent with an inductive effect in which the substituent in the 4-position withdraws electron density away from the Cγ-Cδ bond. A shorter Cγ-Cδ bond length diminishes steric clashes between atoms in the trans isomer, but has no effect on the cis isomer. The inductive effect from the hydroxyl group of Hyp residues is consistent with the effect of Hyp on collagen stability. Other manifestations of the inductive effects of Hyp and Flp residues were also found by Panasik et al. and by Eberhardt et al. Similar inductive effects should be manifested in 4(S)-fluoroproline and in 4,4-difluoroproline.

The nature of data set [2]: trans:cis ratio of the proline peptide bond in N-acetyl proline methylester derivatives. In kind it is physicochemical. Particulars: for ΔΔG: relative to AcProOMe. On the procedure: To begin to test this hypothesis, it was determined how electron-withdrawing groups affect the trans:cis ratio. N-Acetyl proline methylester (AcProOMe), N-acetyl-4(R)-hydroxyproline methylester (AcHypOMe), and N-acetyl-4(R)-fluoroproline (AcFlpOMe) were synthesized and their preferences for the trans state were determined, Eberhardt et al., J. Am. Chem. Soc., 118:12261-12266 (1996).

Turning to `COC(=O)[C@@H]1C[C@@H](O)CN1C(C)=O` [AcHypOMe, N-acetyl-4(R)-hydroxyproline methylester], the Cy-Cδ bond length in data set [1] is 1.510 Å. In data set [2], the “trans:cis ratio” value is on record as 5.8 and the ΔΔG turned out to be 0.18 kcal/mol.
The like results for `COC(=O)[C@@H]1CCCN1C(C)=O` [AcProOMe, N-Acetyl proline methylester] were, in that order, 1.523 Å, 4.3 and 0 kcal/mol.
